In ChEMBL document CHEMBL1770098, “Pyridine-derived thiosemicarbazones and their tin(IV) complexes with antifungal activity against Candida spp” (2011):
≈ marks a conversion by molar mass, not a printed value.

Experiments:
Format in all cases: functional
[1] = tested on: Candida albicans; assay: Antifungal activity against Candida albicans ATCC 18804 after 24 hrs; conditions: ATCC 18804, 24 h
[2] = tested on: Nakaseomyces glabratus; assay: Antifungal activity against Candida glabrata ATCC 90030 after 24 hrs; conditions: ATCC 90030, 24 h
[3] = tested on: Pichia kudriavzevii; assay: Antifungal activity against Candida krusei ATCC 200298 after 24 hrs; conditions: ATCC 200298, 24 h
[4] = tested on: Candida parapsilosis; assay: Antifungal activity against Candida parapsilosis […] after 24 hrs; conditions: Lodderomyces parapsilosis

Structure (SMILES)	MIC [1] [µM]	MIC [2] [µM]	MIC [3] [µM]	MIC [4] [µM]
C/C(=N\NC(=S)Nc1ccccc1[N+](=O)[O-])c1ccccn1	6.34 (≈ 2 µg/mL)	6.34 (≈ 2 µg/mL)	6.34 (≈ 2 µg/mL)	6.34 (≈ 2 µg/mL)
S=C(N/N=C(\c1ccccc1)c1ccccn1)Nc1ccccc1Cl	21.8 (≈ 8 µg/mL)	21.8 (≈ 8 µg/mL)	21.8 (≈ 8 µg/mL)	43.6 (≈ 16 µg/mL)
C/C(=N\NC(=S)Nc1ccccc1Cl)c1ccccn1	13.1 (≈ 4 µg/mL)	13.1 (≈ 4 µg/mL)	13.1 (≈ 4 µg/mL)	26.2 (≈ 8 µg/mL)
OC(Cn1cncn1)(Cn1cncn1)c1ccc(F)cc1F [FLUCONAZOLE]	6.53 (≈ 2 µg/mL)	6.53 (≈ 2 µg/mL)	104 (≈ 32 µg/mL)	6.53 (≈ 2 µg/mL)
Fc1ccccc1NC(=S)N/N=C(\c1ccccc1)c1ccccn1	45.7 (≈ 16 µg/mL)	11.4 (≈ 4 µg/mL)	45.7 (≈ 16 µg/mL)	45.7 (≈ 16 µg/mL)
O=[N+]([O-])c1ccccc1NC(=S)N/N=C(\c1ccccc1)c1ccccn1	21.2 (≈ 8 µg/mL)	21.2 (≈ 8 µg/mL)	21.2 (≈ 8 µg/mL)	42.4 (≈ 16 µg/mL)
C/C(=N\NC(=S)Nc1ccccc1F)c1ccccn1	13.9 (≈ 4 µg/mL)	6.94 (≈ 2 µg/mL)	13.9 (≈ 4 µg/mL)	27.7 (≈ 8 µg/mL)
